From the NIST ThermoML archive (doi:10.1016/j.jct.2011.07.018)

Experiments:
[1] = excess molar enthalpy (molar enthalpy of mixing); xn = mol fraction of the nth substance listed; details: 298.15 K, 101 kPa, Liquid, isothermal titration calorimeter
[2] = 298.15 K; 101.33 kPa; Liquid; Vibrating tube method

CCCCCCC(C)=O [2-octanone] + CCCCCCO
[1]
Details | excess molar enthalpy [kJ/mol]
x2 = 0.021 | 0.115
x2 = 0.041 | 0.217
x2 = 0.06 | 0.31
x2 = 0.079 | 0.393
x2 = 0.097 | 0.469
x2 = 0.114 | 0.538
x2 = 0.13 | 0.599
x2 = 0.146 | 0.655
x2 = 0.164 | 0.714
x2 = 0.181 | 0.767
x2 = 0.197 | 0.816
x2 = 0.213 | 0.858
x2 = 0.228 | 0.897
x2 = 0.242 | 0.932
x2 = 0.259 | 0.969
x2 = 0.275 | 1
x2 = 0.29 | 1.03
x2 = 0.304 | 1.06
x2 = 0.314 | 1.08
x2 = 0.322 | 1.09
x2 = 0.331 | 1.1
x2 = 0.339 | 1.12
x2 = 0.349 | 1.13
x2 = 0.359 | 1.14
x2 = 0.367 | 1.15
x2 = 0.376 | 1.16
x2 = 0.385 | 1.17
x2 = 0.394 | 1.18
x2 = 0.405 | 1.19
x2 = 0.415 | 1.2
x2 = 0.426 | 1.2
x2 = 0.438 | 1.21
x2 = 0.448 | 1.21
x2 = 0.458 | 1.22
x2 = 0.469 | 1.22
x2 = 0.48 | 1.22
x2 = 0.492 | 1.22
x2 = 0.504 | 1.22
x2 = 0.517 | 1.22
x2 = 0.531 | 1.22
x2 = 0.542 | 1.21
x2 = 0.554 | 1.21
x2 = 0.566 | 1.2
x2 = 0.58 | 1.19
x2 = 0.593 | 1.18
x2 = 0.608 | 1.17
x2 = 0.623 | 1.15
x2 = 0.638 | 1.13
x2 = 0.652 | 1.11
x2 = 0.667 | 1.09
x2 = 0.682 | 1.07
x2 = 0.698 | 1.04
x2 = 0.714 | 1.01
x2 = 0.731 | 0.974
x2 = 0.746 | 0.942
x2 = 0.762 | 0.906
x2 = 0.778 | 0.866
x2 = 0.795 | 0.822
x2 = 0.812 | 0.772
x2 = 0.83 | 0.717
x2 = 0.85 | 0.655
x2 = 0.866 | 0.599
x2 = 0.879 | 0.538
x2 = 0.897 | 0.47
x2 = 0.916 | 0.395
x2 = 0.936 | 0.312
x2 = 0.956 | 0.22
x2 = 0.978 | 0.116

C[S+](C)[O-] [dimethyl sulfoxide]
Details | mass density [kg/m3]
[2] | 1095.32

CCCCCCO [hexan-1-ol]
Details | mass density [kg/m3]
[2] | 815.21

CCCCCC(=O)O [hexanoic acid] + CN(C)C=O
[1]
Details | excess molar enthalpy [kJ/mol]
x2 = 0.048 | -0.241
x2 = 0.092 | -0.459
x2 = 0.132 | -0.659
x2 = 0.169 | -0.845
x2 = 0.203 | -1.02
x2 = 0.24 | -1.2
x2 = 0.274 | -1.37
x2 = 0.304 | -1.52
x2 = 0.333 | -1.65
x2 = 0.359 | -1.76
x2 = 0.383 | -1.85
x2 = 0.412 | -1.95
x2 = 0.439 | -2.03
x2 = 0.464 | -2.08
x2 = 0.486 | -2.11
x2 = 0.502 | -2.12
x2 = 0.516 | -2.12
x2 = 0.53 | -2.11
x2 = 0.543 | -2.1
x2 = 0.556 | -2.09
x2 = 0.568 | -2.07
x2 = 0.579 | -2.04
x2 = 0.589 | -2.02
x2 = 0.602 | -1.99
x2 = 0.613 | -1.95
x2 = 0.625 | -1.92
x2 = 0.635 | -1.88
x2 = 0.645 | -1.84
x2 = 0.656 | -1.8
x2 = 0.666 | -1.76
x2 = 0.676 | -1.71
x2 = 0.685 | -1.67
x2 = 0.694 | -1.63
x2 = 0.702 | -1.59
x2 = 0.71 | -1.55
x2 = 0.718 | -1.52
x2 = 0.726 | -1.47
x2 = 0.735 | -1.43
x2 = 0.743 | -1.39
x2 = 0.75 | -1.35
x2 = 0.757 | -1.31
x2 = 0.764 | -1.28
x2 = 0.77 | -1.25
x2 = 0.776 | -1.22
x2 = 0.782 | -1.18
x2 = 0.789 | -1.15
x2 = 0.794 | -1.12
x2 = 0.799 | -1.09
x2 = 0.812 | -1.01
x2 = 0.824 | -0.944
x2 = 0.836 | -0.879
x2 = 0.849 | -0.81
x2 = 0.862 | -0.74
x2 = 0.875 | -0.667
x2 = 0.889 | -0.593
x2 = 0.903 | -0.517
x2 = 0.916 | -0.448
x2 = 0.929 | -0.379
x2 = 0.942 | -0.308
x2 = 0.956 | -0.233
x2 = 0.97 | -0.156
x2 = 0.985 | -0.078

CCCCCCC(C)=O [2-octanone]
Details | mass density [kg/m3]
[2] | 814.32

CCCCCCCCO [octan-1-ol]
Details | mass density [kg/m3]
[2] | 821.67

CCCCCC(=O)O [hexanoic acid] + C[S+](C)[O-]
[1]
Details | excess molar enthalpy [kJ/mol]
x2 = 0.042 | -0.2
x2 = 0.081 | -0.403
x2 = 0.117 | -0.601
x2 = 0.15 | -0.792
x2 = 0.181 | -0.976
x2 = 0.209 | -1.15
x2 = 0.241 | -1.35
x2 = 0.271 | -1.53
x2 = 0.298 | -1.7
x2 = 0.323 | -1.85
x2 = 0.346 | -1.98
x2 = 0.369 | -2.1
x2 = 0.38 | -2.15
x2 = 0.388 | -2.19
x2 = 0.397 | -2.23
x2 = 0.406 | -2.27
x2 = 0.415 | -2.3
x2 = 0.425 | -2.33
x2 = 0.436 | -2.36
x2 = 0.447 | -2.39
x2 = 0.457 | -2.41
x2 = 0.467 | -2.42
x2 = 0.477 | -2.43
x2 = 0.488 | -2.44
x2 = 0.498 | -2.43
x2 = 0.508 | -2.43
x2 = 0.519 | -2.41
x2 = 0.53 | -2.39
x2 = 0.541 | -2.36
x2 = 0.553 | -2.33
x2 = 0.563 | -2.29
x2 = 0.574 | -2.25
x2 = 0.585 | -2.2
x2 = 0.596 | -2.14
x2 = 0.608 | -2.08
x2 = 0.62 | -2.02
x2 = 0.631 | -1.96
x2 = 0.642 | -1.89
x2 = 0.653 | -1.82
x2 = 0.665 | -1.75
x2 = 0.677 | -1.68
x2 = 0.69 | -1.6
x2 = 0.701 | -1.53
x2 = 0.712 | -1.46
x2 = 0.724 | -1.39
x2 = 0.736 | -1.31
x2 = 0.748 | -1.24
x2 = 0.761 | -1.16
x2 = 0.772 | -1.09
x2 = 0.784 | -1.02
x2 = 0.796 | -0.951
x2 = 0.808 | -0.876
x2 = 0.821 | -0.803
x2 = 0.834 | -0.73
x2 = 0.846 | -0.664
x2 = 0.858 | -0.6
x2 = 0.87 | -0.535
x2 = 0.883 | -0.47
x2 = 0.896 | -0.406
x2 = 0.91 | -0.353
x2 = 0.922 | -0.289
x2 = 0.934 | -0.236
x2 = 0.943 | -0.185
x2 = 0.959 | -0.135
x2 = 0.973 | -0.087
x2 = 0.986 | -0.042
